According to patent US20240366605A1, “USE OF QUINAZOLINONE COMPOUND FOR THE TREATMENT OF CANCER” (Hoffmann-La Roche Inc., priority 2021, published 2024):

Assays:
[1] = test system: intracranially implanted A375 tumours (BRAF V600E); test: Intracranial A375 luc melanoma model (brain metastatic setting); assay type: in vivo, mice
Excerpt: (§1) All animal experiments were approved by and performed according to the guidelines of the Institutional Animal Care Committee of the Vall d'Hebron Research Institute in agreement with the European Union and national directives. Female and male NOD scid gamma (NSG) mice of 4 to 5-week-old were purchased from Charles River.
For intracranial models, 5×10^5 A375 luc cells were stereotactically inoculated into the corpus striatum of the right brain hemisphere (1 mm anterior and 1.8 mm lateral to the […]; 2.5 mm intraparenchymal) of mice. Brain implanted tumors were monitored through regular Bioluminescence (BLI) signal detection and a relapse was determined upon observation of a progressive gradual increase of BLI signal.
The A375 cell line presenting BRAF V600E was used as melanoma model. The cell line was stably transduced with a luciferase expressing vector to facilitate tumor size monitoring. […] Brain implanted tumors were monitored through regular Bioluminescence (BLI) signal detection and a relapse was determined upon observation of a progressive gradual increase of BLI signal. […]
The A375 cell line presenting BRAF V600E was used as melanoma model. […] Brain implanted tumors were monitored through regular Bioluminescence (BLI) signal detection and a relapse was determined upon observation of a progressive gradual increase of BLI signal (total flux (p/s) was used to estimate tumour size). […]

[2] = test system: primary tumors from brain metastatic lesions progressing on BRAFi monotherapy or combination therapy with a MEKi; test: In vivo testing in primary tumors from brain metastatic lesions progressing on BRAFi or BRAFi/MEKi
[3] = test system: subcutaneously implanted A375 tumours (BRAF V600E); test: Subcutaneous A375 luc melanoma model (peripheral disease); assay type: in vivo, mice
Excerpt: as §1
For subcutaneous model, 5×10^6 A375 melanoma cells were subcutaneously injected into one flank of mice. Tumour growth was monitored with a Calipher.
The A375 cell line presenting BRAF V600E was used as melanoma model. The cell line was stably transduced with a luciferase expressing vector to facilitate tumor size monitoring. A375 luc were implanted subcutaneously to mimic peripheral disease and then randomized when tumors reached 100-300 mm^3. (10 mice/group). The mice were administered either Vehicle, Compound Ia 10 mg/kg (QD PO) or dabrafenib 100 mg/kg (QD PO). In a fourth treatment cohort, dabrafenib 100 mg/kg (QD PO) was administered until tumor relapse occurred, at which point dabrafenib treatment was discontinued and mice were instead treated with Compound Ia 10 mg/kg (QD PO).

[4] = relapse under dabrafenib 100 mg/kg QD PO, caliper

Structure (SMILES) | responses, brain metastatic lesions ([1]; brain compartment) | responses upon relapse to available BRAFi and BRAFi/MEKi co-treatment ([1]; switch to Compound Ia after relapse, brain lesions) | antitumor activity [2] | responses, peripheral lesions ([3]; peripheral compartment) | responses upon relapse to available BRAFi ([3]; switch to Compound Ia after relapse, peripheral lesions) | Tumour size in relapse (mean value) [3, 4] [mm^3] | Tumour size in relapse (range) [3, 4]
Cn1cnc2ccc(Oc3c(F)ccc(NS(=O)(=O)N4CC[C@@H](F)C4)c3C#N)cc2c1=O [Compound Ia, (3R)—N-[2-cyano-4-fluoro-3-(3-methyl-4-oxo-quinazolin-6-yl)oxy-phenyl]-3-fluoro-pyrrolidine-1-sulfonamide] | long lasting responses | dramatic responses | potent antitumor activity | long lasting responses | dramatic responses | – | –
CC(C)(C)c1nc(-c2cccc(NS(=O)(=O)c3c(F)cccc3F)c2F)c(-c2ccnc(N)n2)s1 [dabrafenib, reference compound] | – | – | – | – | – | 558 | 300-700 mm3
